Data as given in ChEMBL document CHEMBL1143658, “Discovery of 2-[(2,4-dichlorophenyl)amino]-N-[(tetrahydro- 2H-pyran-4-yl)methyl]-4-(trifluoromethyl)- 5-pyrimidinecarboxamide, a selective CB2 receptor agonist for the treatment of inflammatory pain” (J Med Chem, 2007).
The source made the active and inactive calls. The rule behind the calls is not given here.

What was measured:
Rattus norvegicus [1] = assay: Reversal of antihypersensitivity to pain in rat FCA model of inflammatory pain at 15 mg/kg, ip after 1 hr; assay type: functional, organism-based; design: dose 15 mg/kg
Cannabinoid receptor 2 [2] = biological target: T1, Cannabinoid receptor 2 (Homo sapiens, UniProt P34972); assay: Agonist activity at human recombinant CB2 receptor expressed in Saccharomyces cerevisiae cells; assay type: functional, cell-based
Cannabinoid receptor 2 [3] = biological target: T1, Cannabinoid receptor 2; assay: Efficacy at human recombinant CB2 receptor expressed in Saccharomyces cerevisiae cells relative to HU210; assay type: cell-based
Cytochrome P450 3A4 = Cytochrome P450 3A4 (Homo sapiens, UniProt P08684); assay: Inhibition of human CYP3A4
[4] = Oral bioavailability in rat; assay type: ADME, organism-based; conditions: in vivo
[5] = biological target: T2, Cannabinoid receptor 2 (Rattus norvegicus) (UniProt Q9QZN9); assay: (§1) Agonist activity at rat CB2 receptor; assay type: functional
T2 sequence (whole entry): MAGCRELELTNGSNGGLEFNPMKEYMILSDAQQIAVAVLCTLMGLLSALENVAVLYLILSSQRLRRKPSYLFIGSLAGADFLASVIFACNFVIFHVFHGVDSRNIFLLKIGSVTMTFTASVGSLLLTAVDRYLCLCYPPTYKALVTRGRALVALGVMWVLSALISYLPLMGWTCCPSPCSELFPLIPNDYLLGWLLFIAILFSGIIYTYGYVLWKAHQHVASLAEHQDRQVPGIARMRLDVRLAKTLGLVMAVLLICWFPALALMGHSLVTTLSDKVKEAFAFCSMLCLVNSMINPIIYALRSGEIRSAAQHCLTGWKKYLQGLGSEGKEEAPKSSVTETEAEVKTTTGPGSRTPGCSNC

Cannabinoid receptor 2 [6] = biological target: T3, Cannabinoid receptor 2 (Rattus norvegicus, UniProt Q9QZN9); assay: as §1; assay type: functional
T3 sequence (Q9QZN9 whole entry): T2 sequence (whole entry)

Rattus norvegicus [7] = assay: Reversal of FCA-induced hyperalgesia in rat administered thrice daily at 1 mg/kg, po; assay type: functional, organism-based; design: dose 1 mg/kg
[8] = Half life in rat; assay type: ADME, organism-based; conditions: in vivo
Rattus norvegicus [9] = assay: Reversal of hyperalgesia in rat at 0.3 mg/kg, po by weight bearing protocol; assay type: functional, organism-based; design: dose 0.3 mg/kg
[10] = Drug concentration in blood of rat FCA model of inflammatory pain at 0.3 mg/kg, po after 1hr; assay type: ADME, organism-based; design: dose 0.3 mg/kg, route oral; conditions: read-out: Activity
[11] = Drug concentration in blood of rat FCA model of inflammatory pain at 0.03 mg/kg, po after 1hr; assay type: ADME, organism-based; design: dose 0.03 mg/kg, route oral; conditions: read-out: Activity
Rattus norvegicus [12] = assay: Analgesic activity in po dosed rat FCA model of inflammatory pain; assay type: functional
Cytochrome P450 2C9 = Cytochrome P450 2C9 (Homo sapiens, UniProt P11712); assay: Inhibition of human CYP2C9; assay type: ADME
Cytochrome P450 2C19 = Cytochrome P450 2C19 (Homo sapiens, UniProt P33261); assay: Inhibition of human CYP2C19; assay type: ADME
Cytochrome P450 1A2 = biological target: T4, Cytochrome P450 1A2 (Homo sapiens, UniProt P05177); assay: Inhibition of human CYP1A2; assay type: ADME
T4 sequence (P05177 whole entry): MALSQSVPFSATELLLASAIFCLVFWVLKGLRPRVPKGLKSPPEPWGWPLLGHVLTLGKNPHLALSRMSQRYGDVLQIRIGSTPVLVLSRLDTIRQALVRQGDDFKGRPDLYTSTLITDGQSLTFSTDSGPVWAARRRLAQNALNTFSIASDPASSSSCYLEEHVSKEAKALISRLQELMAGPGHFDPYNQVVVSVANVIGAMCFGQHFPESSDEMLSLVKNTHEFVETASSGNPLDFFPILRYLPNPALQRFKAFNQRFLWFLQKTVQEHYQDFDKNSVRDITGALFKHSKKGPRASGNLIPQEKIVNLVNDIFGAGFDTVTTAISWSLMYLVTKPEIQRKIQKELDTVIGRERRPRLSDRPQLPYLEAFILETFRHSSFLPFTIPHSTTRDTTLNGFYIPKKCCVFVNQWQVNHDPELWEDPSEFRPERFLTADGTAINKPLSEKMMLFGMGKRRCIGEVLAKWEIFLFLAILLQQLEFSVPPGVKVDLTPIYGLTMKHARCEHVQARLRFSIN

[13] = Drug concentration in blood of rat FCA model of inflammatory pain at 0.1 mg/kg, po after 1hr; assay type: ADME, organism-based; design: dose 0.1 mg/kg, route oral; conditions: read-out: Activity
Cytochrome P450 2D6 = Cytochrome P450 2D6 (Homo sapiens, UniProt P10635); assay: Inhibition of human CYP2D6; assay type: ADME
Liver microsomes = assay: Intrinsic clearance in rat liver microsome; assay type: ADME

Cytochrome P450 3A4, sequence (P08684 whole entry): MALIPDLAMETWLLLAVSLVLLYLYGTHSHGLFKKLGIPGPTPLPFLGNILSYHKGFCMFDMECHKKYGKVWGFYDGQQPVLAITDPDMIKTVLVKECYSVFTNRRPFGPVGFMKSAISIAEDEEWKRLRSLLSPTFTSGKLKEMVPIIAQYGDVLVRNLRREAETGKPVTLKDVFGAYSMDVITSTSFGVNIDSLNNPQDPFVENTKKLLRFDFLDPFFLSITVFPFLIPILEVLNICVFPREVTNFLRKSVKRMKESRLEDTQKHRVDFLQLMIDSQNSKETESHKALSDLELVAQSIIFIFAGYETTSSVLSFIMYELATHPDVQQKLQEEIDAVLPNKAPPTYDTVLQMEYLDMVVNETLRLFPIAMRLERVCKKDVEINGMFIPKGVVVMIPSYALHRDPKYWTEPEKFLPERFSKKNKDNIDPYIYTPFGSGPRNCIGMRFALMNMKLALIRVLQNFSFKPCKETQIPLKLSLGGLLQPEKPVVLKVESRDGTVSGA
Cytochrome P450 2C19, sequence (P33261 whole entry): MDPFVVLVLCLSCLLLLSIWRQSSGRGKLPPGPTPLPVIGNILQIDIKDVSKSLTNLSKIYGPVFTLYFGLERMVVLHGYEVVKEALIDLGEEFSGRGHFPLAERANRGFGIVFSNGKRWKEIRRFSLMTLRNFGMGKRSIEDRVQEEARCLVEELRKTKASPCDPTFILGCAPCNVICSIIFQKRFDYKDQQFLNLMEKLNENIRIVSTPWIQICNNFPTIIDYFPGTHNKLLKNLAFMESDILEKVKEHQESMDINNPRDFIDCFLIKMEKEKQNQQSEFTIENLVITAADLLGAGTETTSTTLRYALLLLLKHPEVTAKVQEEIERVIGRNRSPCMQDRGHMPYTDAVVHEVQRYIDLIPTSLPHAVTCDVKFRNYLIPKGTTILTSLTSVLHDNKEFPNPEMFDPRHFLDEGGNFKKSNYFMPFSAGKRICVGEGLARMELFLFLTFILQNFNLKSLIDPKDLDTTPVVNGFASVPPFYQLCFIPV
T1 sequence (P34972 whole entry): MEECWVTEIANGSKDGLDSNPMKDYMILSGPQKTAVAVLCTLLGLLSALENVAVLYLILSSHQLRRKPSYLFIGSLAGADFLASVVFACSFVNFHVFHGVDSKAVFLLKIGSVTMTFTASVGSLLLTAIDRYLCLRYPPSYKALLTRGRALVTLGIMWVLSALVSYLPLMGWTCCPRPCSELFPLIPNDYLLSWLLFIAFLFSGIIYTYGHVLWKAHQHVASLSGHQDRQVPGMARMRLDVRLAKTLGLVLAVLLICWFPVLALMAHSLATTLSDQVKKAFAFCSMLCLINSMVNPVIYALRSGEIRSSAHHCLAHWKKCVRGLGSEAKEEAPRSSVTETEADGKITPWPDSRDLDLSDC
Cytochrome P450 2C9, sequence (P11712 whole entry): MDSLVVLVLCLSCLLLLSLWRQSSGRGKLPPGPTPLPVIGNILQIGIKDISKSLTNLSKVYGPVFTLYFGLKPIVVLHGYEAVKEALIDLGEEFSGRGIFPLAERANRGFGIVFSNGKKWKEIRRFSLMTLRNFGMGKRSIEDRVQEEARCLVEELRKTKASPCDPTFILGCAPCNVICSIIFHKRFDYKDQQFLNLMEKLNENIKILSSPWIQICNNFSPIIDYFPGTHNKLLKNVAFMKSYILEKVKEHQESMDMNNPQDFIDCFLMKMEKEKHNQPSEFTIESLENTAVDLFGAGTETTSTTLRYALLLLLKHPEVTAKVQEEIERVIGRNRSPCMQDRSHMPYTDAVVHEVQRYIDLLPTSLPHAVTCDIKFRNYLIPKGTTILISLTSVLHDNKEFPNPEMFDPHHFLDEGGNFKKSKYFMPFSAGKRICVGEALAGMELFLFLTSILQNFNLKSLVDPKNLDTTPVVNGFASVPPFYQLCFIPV
Cytochrome P450 2D6, sequence (P10635 whole entry): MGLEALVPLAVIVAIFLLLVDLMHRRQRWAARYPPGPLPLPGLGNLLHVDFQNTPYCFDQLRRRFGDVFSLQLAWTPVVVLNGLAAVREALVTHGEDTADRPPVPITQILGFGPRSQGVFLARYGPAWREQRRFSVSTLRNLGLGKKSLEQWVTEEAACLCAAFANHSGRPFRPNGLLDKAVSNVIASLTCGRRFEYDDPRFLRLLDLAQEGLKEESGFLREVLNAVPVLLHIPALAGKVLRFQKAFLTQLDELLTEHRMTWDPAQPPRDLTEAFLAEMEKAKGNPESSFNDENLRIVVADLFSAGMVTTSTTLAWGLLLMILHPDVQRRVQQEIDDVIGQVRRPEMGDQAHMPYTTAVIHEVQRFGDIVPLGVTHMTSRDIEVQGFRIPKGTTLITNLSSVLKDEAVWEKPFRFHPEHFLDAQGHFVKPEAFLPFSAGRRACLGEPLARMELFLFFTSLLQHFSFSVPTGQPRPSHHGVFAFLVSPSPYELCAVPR

Row | SMILES | EC50 (Cannabinoid receptor 2 [2]) [µM] | Efficacy (Cannabinoid receptor 2 [3]) [%] | other results
1 | COc1ccc(C(=O)c2c(C)n(CCN3CCOCC3)c3cc(I)ccc23)cc1 | – | – | Activity (Rattus norvegicus [1]): Active
2 | O=C(NCC1CC1)c1cnc(Nc2cccc(Cl)c2)nc1C(F)(F)F | 0.08 | 79 | –
3 | O=C(NCC1CCOCC1)c1cnc(Nc2ccc(Cl)cc2Cl)nc1C(F)(F)F [GW842166X] | 0.063 | 95 | IC50 (Cytochrome P450 3A4): > 100 µM; bioavailability [4]: 58%; Efficacy [5]: 100%; EC50 (Cannabinoid receptor 2 [6]): 0.091 µM; Activity (Rattus norvegicus [7]): Active; half-life [8]: 3 h; Activity (Rattus norvegicus [9]): Active; concentration at 1 h [10]: 370 nM; concentration at 1 h [11]: 30 nM; ED50 (Rattus norvegicus [12]): 0.1 mg/kg; IC50 (Cytochrome P450 2C9): > 100 µM; IC50 (Cytochrome P450 2C19): > 100 µM; IC50 (Cytochrome P450 1A2): > 100 µM; concentration at 1 h [13]: 130 nM; IC50 (Cytochrome P450 2D6): > 100 µM
4 | O=C(NCc1ccc(F)cc1)c1cnc(Nc2cccc(Cl)c2)nc1C(F)(F)F | 0.063 | 78 | IC50 (Cytochrome P450 3A4): 5 µM; IC50 (Cytochrome P450 2C9): 8 µM; IC50 (Cytochrome P450 2C19): 12 µM; IC50 (Cytochrome P450 1A2): 8 µM; IC50 (Cytochrome P450 2D6): 1.5 µM
5 | O=C(NCc1cccc(Cl)c1)c1cnc(Nc2cccc(Cl)c2)nc1C(F)(F)F | 1.58 | 18 | –
6 | O=C(NCc1ccccc1)c1cnc(Nc2cccc(Br)c2)nc1C(F)(F)F | 0.23 | 81 | –
7 | N#Cc1ccc(Nc2ncc(C(=O)NCc3ccccc3)c(C(F)(F)F)n2)cc1 | 0.4 | 67 | –
8 | O=C(NCC1CCOCC1)c1cnc(Nc2cc(Cl)ccc2F)nc1C(F)(F)F | 0.125 | 86 | IC50 (Cytochrome P450 3A4): 68 µM; IC50 (Cytochrome P450 2C9): 37 µM; IC50 (Cytochrome P450 2C19): > 100 µM; IC50 (Cytochrome P450 1A2): 26 µM; IC50 (Cytochrome P450 2D6): > 100 µM
9 | CC(=O)Nc1cccc(Nc2ncc(C(=O)NCc3ccccc3)c(C(F)(F)F)n2)c1 | > 25 | – | –
10 | O=C(NCc1ccccc1Cl)c1cnc(Nc2cccc(Cl)c2)nc1C(F)(F)F | 10 | 21 | –
11 | O=C(NCC1CCNCC1)c1cnc(Nc2cccc(Cl)c2)nc1C(F)(F)F | 5 | 46 | –
12 | O=C(NCC1CCOCC1)c1cnc(Nc2cc(Cl)ccc2Cl)nc1C(F)(F)F | 0.1 | 85 | –
13 | COc1cccc(Nc2ncc(C(=O)NCc3ccccc3)c(C(F)(F)F)n2)c1 | 0.465 | 76 | –
14 | COc1ccc(Nc2ncc(C(=O)NCc3ccccc3)c(C(F)(F)F)n2)cc1 | 0.2 | 32 | –
15 | COc1ccc(CNC(=O)c2cnc(Nc3cccc(Cl)c3)nc2C(F)(F)F)cc1 | 0.214 | 66 | –
16 | O=C(NCC1CCOCC1)c1cnc(Nc2cccc(Cl)c2)nc1C(F)(F)F | 0.05 | 89 | IC50 (Cytochrome P450 3A4): 51 µM; IC50 (Cytochrome P450 2C9): 18 µM; IC50 (Cytochrome P450 2C19): 56 µM; IC50 (Cytochrome P450 1A2): > 100 µM; IC50 (Cytochrome P450 2D6): 51 µM
17 | O=C(NCc1ccccc1)c1cnc(Nc2ccc(Cl)cc2)nc1C(F)(F)F | 0.126 | 49 | –
18 | COc1cccc(CNC(=O)c2cnc(Nc3cccc(Cl)c3)nc2C(F)(F)F)c1 | 25 | 20 | –
19 | O=C(NCC1CCOCC1)c1cnc(Nc2cccc(F)c2F)nc1C(F)(F)F | 0.4 | 90 | –
20 | O=C(NCc1ccc(Cl)cc1)c1cnc(Nc2cccc(Cl)c2)nc1C(F)(F)F | 0.4 | 65 | –
21 | O=C(NCc1ccco1)c1cnc(Nc2ccccc2)nc1C(F)(F)F | 0.63 | 62 | CL (Liver microsomes): 4.6 mL/min/g
22 | O=C(NCc1ccccc1)c1cnc(Nc2cccc(Cl)c2)nc1C(F)(F)F | 0.245 | 82 | –
23 | O=C(NCC1CCOCC1)c1cnc(Nc2cccc(Cl)c2Cl)nc1C(F)(F)F | 0.08 | 90 | –
